Experimental data reported in ChEMBL document CHEMBL3885861, “Open TG-GATES”.

Species: Rattus norvegicus
Assay: Open TG-GATES - Regimen: Single
Assay type: toxicity, organism-based, Sprague-Dawley
Set-up: regimen Single, gender Male, age 6 weeks
Settings: in vivo, po, 0 mg/kg, route gavage, dose level Control; for APTT / Bas / Eos / Fbg / Hb / Ht / Lym / MCH / MCHC / MCV / Mono / Neu / PT / Plat / RBC / Ret / WBC: tissue Blood; for KIDNEY_L / KIDNEY_R / KIDNEY_TOTAL: tissue Kidney; for LIVER: tissue Liver; for A/G / ALP / ALT / AST / BUN / CRE / Ca / Cl / DBIL / GLC / IP / K / LDH / Na / PL / RALB / TBIL / TC / TG / TP / gamma-GTP: tissue Plasma

SMILES: CCc1cc(C(N)=S)ccn1 [ETHIONAMIDE]
- TERMINAL_BW (3 h): 229.3 g
- APTT (3 h): 16.6 s
- Bas (3 h): 0%
- Eos (3 h): 1%
- Fbg (3 h): 213.4 mg/dL
- Hb (3 h): 14 g/dL
- Ht (3 h): 41.5%
- Lym (3 h): 80.2%
- MCH (3 h): 22.1 pg
- MCHC (3 h): 33.8%
- MCV (3 h): 65.5 fL
- Mono (3 h): 7.2%
- Neu (3 h): 11.6%
- PT (3 h): 11.7 s
- Plat (3 h): 118.5 x10_4/uL
- RBC (3 h): 635.2 x10_4/ul
- Ret (3 h): 7.7%
- WBC (3 h): 98.2 x10_2/uL
- KIDNEY_L (3 h): 1 g
- KIDNEY_R (3 h): 1.1 g
- KIDNEY_TOTAL (3 h): 2.1 g
- LIVER (3 h): 11.4 g
- A/G (3 h): 1.8
- ALP (3 h): 831 IU/L
- ALT (3 h): 31.8 IU/L
- AST (3 h): 64.6 IU/L
- BUN (3 h): 13.6 mg/dL
- CRE (3 h): 0.6 mg/dL
- Ca (3 h): 10.9 mg/dL
- Cl (3 h): 104.8 meq/L
- DBIL (3 h): 0.006 mg/dL
- GLC (3 h): 192.4 mg/dL
- IP (3 h): 8.2 mg/dL
- K (3 h): 4.6 meq/L
- LDH (3 h): 72.6 IU/L
- Na (3 h): 141 meq/L
- PL (3 h): 152.2 mg/dL
- RALB (3 h): 3.5 g/dL
- TBIL (3 h): 0.3 mg/dL
- TC (3 h): 82 mg/dL
- TG (3 h): 86.2 mg/dL
- TP (3 h): 5.4 g/dL
- gamma-GTP (3 h): 1 IU/L
- TERMINAL_BW (6 h): 223.7 g
- APTT (6 h): 18.2 s
- Bas (6 h): 0%
- Eos (6 h): 1%
- Fbg (6 h): 221.6 mg/dL
- Hb (6 h): 14.1 g/dL
- Ht (6 h): 41.9%
- Lym (6 h): 80.6%
- MCH (6 h): 21.8 pg
- MCHC (6 h): 33.5%
- MCV (6 h): 65.2 fL
- Mono (6 h): 7.6%
- Neu (6 h): 11.2%
- PT (6 h): 12.1 s
- Plat (6 h): 124.1 x10_4/uL
- RBC (6 h): 644 x10_4/ul
- Ret (6 h): 7.8%
- WBC (6 h): 114.3 x10_2/uL
- KIDNEY_L (6 h): 1 g
- KIDNEY_R (6 h): 1 g
- KIDNEY_TOTAL (6 h): 2 g
- LIVER (6 h): 10.5 g
- A/G (6 h): 1.6
- ALP (6 h): 729.4 IU/L
- ALT (6 h): 29.6 IU/L
- AST (6 h): 63.6 IU/L
- BUN (6 h): 12 mg/dL
- CRE (6 h): 0.5 mg/dL
- Ca (6 h): 11 mg/dL
- Cl (6 h): 104 meq/L
- DBIL (6 h): 0 mg/dL
- GLC (6 h): 187.6 mg/dL
- IP (6 h): 9.4 mg/dL
- K (6 h): 5 meq/L
- LDH (6 h): 87.8 IU/L
- Na (6 h): 139 meq/L
- PL (6 h): 150 mg/dL
- RALB (6 h): 3.3 g/dL
- TBIL (6 h): 0.4 mg/dL
- TC (6 h): 82.4 mg/dL
- TG (6 h): 86.6 mg/dL
- TP (6 h): 5.4 g/dL
- gamma-GTP (6 h): 1.2 IU/L
- TERMINAL_BW (9 h): 223.4 g
- APTT (9 h): 17.3 s
- Bas (9 h): 0%
- Eos (9 h): 1%
- Fbg (9 h): 213.8 mg/dL
- Hb (9 h): 13.9 g/dL
- Ht (9 h): 41%
- Lym (9 h): 71%
- MCH (9 h): 21.8 pg
- MCHC (9 h): 33.9%
- MCV (9 h): 64.3 fL
- Mono (9 h): 7%
- Neu (9 h): 21.4%
- PT (9 h): 12.1 s
- Plat (9 h): 115.1 x10_4/uL
- RBC (9 h): 639.6 x10_4/ul
- Ret (9 h): 7.9%
- WBC (9 h): 97.9 x10_2/uL
- KIDNEY_L (9 h): 1.1 g
- KIDNEY_R (9 h): 1 g
- KIDNEY_TOTAL (9 h): 2.1 g
- LIVER (9 h): 9.8 g
- A/G (9 h): 1.9
- ALP (9 h): 759.2 IU/L
- ALT (9 h): 31.2 IU/L
- AST (9 h): 59.2 IU/L
- BUN (9 h): 13.2 mg/dL
- CRE (9 h): 0.5 mg/dL
- Ca (9 h): 10.4 mg/dL
- Cl (9 h): 107 meq/L
- DBIL (9 h): 0.024 mg/dL
- GLC (9 h): 194.8 mg/dL
- IP (9 h): 10.2 mg/dL
- K (9 h): 4.7 meq/L
- LDH (9 h): 66.6 IU/L
- Na (9 h): 143.4 meq/L
- PL (9 h): 126.8 mg/dL
- RALB (9 h): 3.6 g/dL
- TBIL (9 h): 0.4 mg/dL
- TC (9 h): 65.8 mg/dL
- TG (9 h): 47.8 mg/dL
- TP (9 h): 5.4 g/dL
- gamma-GTP (9 h): 1.2 IU/L
- TERMINAL_BW (24 h): 237.2 g
- APTT (24 h): 16.3 s
- Bas (24 h): 0%
- Eos (24 h): 1.2%
- Fbg (24 h): 214.4 mg/dL
- Hb (24 h): 13.9 g/dL
- Ht (24 h): 41.1%
- Lym (24 h): 75.6%
- MCH (24 h): 21.8 pg
- MCHC (24 h): 33.7%
- MCV (24 h): 64.7 fL
- Mono (24 h): 7.6%
- Neu (24 h): 15.6%
- PT (24 h): 11.7 s
- Plat (24 h): 117.8 x10_4/uL
- RBC (24 h): 635.6 x10_4/ul
- Ret (24 h): 7.8%
- WBC (24 h): 117.6 x10_2/uL
- KIDNEY_L (24 h): 1 g
- KIDNEY_R (24 h): 1 g
- KIDNEY_TOTAL (24 h): 2.1 g
- LIVER (24 h): 11.8 g
- A/G (24 h): 1.9
- ALP (24 h): 856.4 IU/L
- ALT (24 h): 40.8 IU/L
- AST (24 h): 70.6 IU/L
- BUN (24 h): 20 mg/dL
- CRE (24 h): 0.6 mg/dL
- Ca (24 h): 11 mg/dL
- Cl (24 h): 104.4 meq/L
- DBIL (24 h): 0.016 mg/dL
- GLC (24 h): 200.2 mg/dL
- IP (24 h): 8.1 mg/dL
- K (24 h): 4.7 meq/L
- LDH (24 h): 77.8 IU/L
- Na (24 h): 141.2 meq/L
- PL (24 h): 151.8 mg/dL
- RALB (24 h): 3.6 g/dL
- TBIL (24 h): 0.3 mg/dL
- TC (24 h): 79.8 mg/dL
- TG (24 h): 90.6 mg/dL
- TP (24 h): 5.5 g/dL
- gamma-GTP (24 h): 1.6 IU/L
